Literature values in patent US20070269404A1, “Controlling Sugar Feeding Insects” (Westham Ltd., priority 2006, published 2007).

Tested on: birds and mammals
Conditions: Williams et al. 2003

Spinosad
toxicity to birds and mammals: very little toxicity
